Results published in US20070196902A1, “Method of detecting AZT resistance in HIV” (University of Pittsburgh, priority 2006, published 2007).

Tests used:
HIV-1 RT H539N = conditions: H539N mutation; cited from earlier work
[1] = tested on: HIVLAI containing the M41L/L210W/T215Y mutations (AZT^R HIVLAI) passaged in increasing concentrations of AZT; experiment: AZT susceptibility of virus passaged in increasing AZT, selection starting with AZT^R HIVLAI; single-cycle assay in P4/R5 cells; assay type: cell-based, HIV-1; conditions: for Fold-Resistance: compared to wild-type passaged without AZT
Experimental: Selection of AZT-resistant viruses. Resistant virus was selected in two independent experiments by the passage of wild-type HIVLAI or HIVLAI containing the M41L/L210W/T215Y mutations (AZT^R HIVLAI) in MT-2 cells in increasing concentrations of AZT. To initiate each selection experiment, MT-2 cells (1×10^6) were pretreated for two hours with 0.5 μM and 25 μM AZT for wild-type HIVLAI and AZT^R HIVLAI, respectively, before virus was added. Viral replication was monitored by CPE. At +3/4 CPE (3 or 4 syncytia per field at 100× magnified field), cell-free supernatant was harvested and 0.1 ml of supernatant was added to fresh MT-2 cells to initiate a new passage. The concentration of AZT was doubled every three passages. The selection pressure was increased from an initial AZT concentration of 0.5 μM to a final concentration of 32 μM for wild-type HIVLAI, and from 25 μM to 150 μM for the AZT^R HIVLAI. The concentration of drug required to inhibit viral replication by 50% (IC50) was calculated every five passages to identify changes in AZT susceptibility, and fold-resistance was determined by dividing the IC50 of the mutant virus by the IC50 of wild-type HIV-1LAI. The genotype of the passaged virus was determined as described above.
Drug susceptibility assays. NRTI susceptibility was determined in P4/R5 cells as described previously (Parikh, U. M., et al. 2005. Antimicrob. Agents Chemother. 49:1139-44). Briefly, threefold dilutions of inhibitor were added to P4/R5 cells in triplicate and cells were infected with an amount of virus that produced 100 relative units of light (RLU) in no drug, virus control wells. After 48 hours, the cells were lysed (Gal-Screen; Tropix/Applied Biosystems, Foster City, Calif.) and the RLU was measured using a ThermoLabSystems luminometer (Waltham, Mass.). The IC50 and fold-resistance were calculated as described above. IC50 values from at least three independent experiments were log10 transformed and compared for statistically significant differences using the two-sample Student's t test.
Selection of AZT-resistant virus. Two independent AZT selection experiments were conducted. One starting with wild-type HIV-1LAI and the second starting with AZT HIV-1LAI (encoding M41L/L210W/T215Y). Both viruses were serially passaged in MT-2 cells in increasing concentrations of AZT. After every 5 passages, AZT susceptibility was measured in a single-cycle viral replication assay in P4/R5 cells (described in Materials and Methods). Viral RNA was extracted, converted to cDNA and the entire coding region of RT (residues 1-560) was PCR amplified and sequenced to monitor the appearance of mutations. In the selection experiment starting with HIV-1LAI, AZT susceptibility was reduced 66-fold by passage 35 and two polymerase domain TAMs were identified: D67N and K70R (Table 1).

[2] = tested on: HIV-1 RT A360I with "classic" TAMs; conditions: A360I present with "classic" TAMs; cited from earlier work
HIV-1 RT D549N = conditions: D549N mutation; cited from earlier work
[3] = tested on: HIVLAI RT 67N/70R/215F/509L; experiment: Drug susceptibility assay in P4/R5 cells, site-directed mutant; assay type: cell-based, HIV-1

Q: For `Cc1cn([C@H]2C[C@H](N=[N+]=[N-])[C@@H](CO)O2)c(=O)[nH]c1=O` [AZT, 3′-azido-3′-dideoxythymidine], which “increase in resistance (reduced susceptibility)” value (HIV-1 RT H539N) is on record?
A: 180 fold

Q: What about the IC50 ([1]; Human immunodeficiency virus 1, P4/R5, passage 1, AZT concentration 25 μM) of the same molecule?
A: 21 µM

Q: And the IC50 ([1]; Human immunodeficiency virus 1, P4/R5, passage 10, AZT concentration 50 μM)?
A: 34 µM

Q: And the IC50 ([1]; Human immunodeficiency virus 1, P4/R5, passage 25, AZT concentration 100 μM, M41L, D67D/N, L210W, L214F, T215Y)?
A: 126 µM

Q: What about the IC50 ([1]; Human immunodeficiency virus 1, P4/R5, passage 30, AZT concentration 150 μM, M41L, D67D/N, L210W, L214F, T215Y) of the same molecule?
A: 181 µM

Q: And the IC50 ([1]; Human immunodeficiency virus 1, P4/R5, passage 35, AZT concentration 150 μM, M41L, D67N, L210W, L214F, T215Y)?
A: > 810 µM

Q: And the Fold-Resistance ([1]; passage 25, M41L, D67D/N, L210W, L214F, T215Y)?
A: 39 fold

Q: What about the Fold-Resistance ([1]; passage 30, M41L, D67D/N, L210W, L214F, T215Y) of the same molecule?
A: 62 fold

Q: What about the “reduction of AZT susceptibility” value [2] of the same molecule?
A: 30 fold

Q: What about the “increase in resistance (reduced susceptibility)” value (HIV-1 RT D549N) of the same molecule?
A: 12 fold

Q: What about the Fold-Resistance ([3]; 67N/70R/215F/509L compared to wild-type) of the same molecule?
A: 128 fold

Q: What about the IC50 ([3]; Human immunodeficiency virus 1, P4/R5, 67N/70R/215F/509L, mean ± SD) of the same molecule?
A: 28 ± 17 µM
